# Measured values reported in patent US20240139220A1, “TREATMENT OF HPV INFECTION” (priority 2022, published 2024).
# Like-named read-outs stand apart in the source and are kept apart here.
# Tests used:
# Assay type in all cases: physicochemical
# [1] = Hygroscicity by Dynamic Vapor Sorption (DVS) at 25° C.
# Description: Hygroscopicity was investigated by DVS at 25° C., using the following method: […]
# [2] = Approximate solubility in solvents at 25° C. and 50° C. by visual observation; settings: thermodynamic from solid, read-out: Solubility
# Description: The maximum volume of each solvent added was 1 mL. Approximate solubility was determined by visual observation.
# Maximum volume of each solvent added was 1 mL. Approximate solubility was determined by visual observation.
# [3] = Solubility in buffers, water and simulated vaginal fluid at 37° C.
# Description: About 4 mg of Compound I Pattern 1 was added into 2 mL of buffer solution.
# (§1) Solubility was tested in five media, pH 3.0 citrate buffer, pH 4.5 acetate buffer, pH 6.8 phosphate buffer, water, simulated vaginal fluid (pH 4.2) at 37° C. for 0.5 h and 2 h.
# The salt amount used is equivalent to 10 mg anhydrous free base. […] The obtained clear solutions were analyzed by pH meter for pH, and solubility was determined by observation.
# as §1
# [4] = Bulk stability, accelerated storage for one week (HPLC, XRPD)
# Description: Bulk stability: Accelerated stability experiments were conducted at 25° C./92% RH and 40° C./75% RH in an open container, 60° C. in a tight container for one week.
# Samples were characterized by XRPD and HPLC and inspected for color change.
# Accelerated stability experiments were conducted at 25° C./92% RH in an open container, at 40° C./75% RH in an open container, and at 60° C. in a tight container for one week.
# [5] = cycle of 40-0-95-0-45% relative humidity
# [6] = Simulated vaginal fluid (pH adjusted with 0.2N NaOH)
# [7] = 25° C., 92% RH, open container, one week
# [8] = 40° C., 75% RH, open container, one week
# [9] = 60° C., tight container, one week
structure (smiles),measurement,setting,value
"CCOC(=O)[C@H](C)N[P@](=O)(COCCn1cnc2c(OC)nc(N)nc21)OCc1ccccc1 (single isomer, unassigned) [Compound III, monofumarate]",Fold increase of retained water content versus Compound II,[1]; [5],40 fold
same,XRPD pattern after humidity cycle,[1]; [5],lose one of the peaks
same,Water content retained,[1]; exposed to a cycle of 40-0-95-0-45% relative humidity,about 10%
"CCOC(=O)[C@H](C)NP(=O)(COCCn1cnc2c(OC)nc(N)nc21)OCc1ccccc1 (stereo partly drawn) [Compound I, ethyl(((2-(2-amino-6-methoxy-9H-purin-9-yl)ethoxy)methylxbenzyloxy)-phosphoryl)-L-alaninate]",Solubility,"[2]; organic solvent or mixture, Acetone, 25° C.",> 100 mg/mL
same,Solubility,"[2]; organic solvent or mixture, Acetone, 50° C.",> 500 mg/mL
same,Solubility,"[2]; organic solvent or mixture, Acetonitrile (ACN), 25° C.",> 100 mg/mL
same,Solubility,"[2]; organic solvent or mixture, Acetonitrile (ACN), 50° C.",> 500 mg/mL
same,Solubility,"[2]; organic solvent or mixture, Dichloromethane (DCM), 25° C.",> 100 mg/mL
same,Solubility,"[2]; organic solvent or mixture, Dichloromethane (DCM), 50° C.",> 500 mg/mL
same,Solubility,"[2]; organic solvent or mixture, Ethanol (EtOH), 25° C.",> 100 mg/mL
same,Solubility,"[2]; organic solvent or mixture, Ethanol (EtOH), 50° C.",> 500 mg/mL
same,Solubility,"[2]; organic solvent or mixture, Ethyl acetate (EA), 25° C.",> 100 mg/mL
same,Solubility,"[2]; organic solvent or mixture, Ethyl acetate (EA), 50° C.",> 500 mg/mL
same,Solubility,"[2]; organic solvent or mixture, Heptanes, 25° C.",< 2 mg/mL
same,Solubility,"[2]; organic solvent or mixture, Heptanes, 50° C.",< 10 mg/mL
same,Solubility,"[2]; organic solvent or mixture, Isopropanol (IPA), 25° C.",> 100 mg/mL
same,Solubility,"[2]; organic solvent or mixture, Isopropanol (IPA), 50° C.",> 500 mg/mL
same,Solubility,"[2]; organic solvent or mixture, Isopropyl acetate (IPAc), 25° C.",> 100 mg/mL
same,Solubility,"[2]; organic solvent or mixture, Isopropyl acetate (IPAc), 50° C.",> 500 mg/mL
same,Solubility,"[2]; organic solvent or mixture, Methanol (MeOH), 25° C.",> 100 mg/mL
same,Solubility,"[2]; organic solvent or mixture, Methanol (MeOH), 50° C.",> 500 mg/mL
same,Solubility,"[2]; organic solvent or mixture, Methyl ethyl ketone (MEK), 25° C.",> 100 mg/mL
same,Solubility,"[2]; organic solvent or mixture, Methyl ethyl ketone (MEK), 50° C.",> 500 mg/mL
same,Solubility,"[2]; organic solvent or mixture, Methyl t-butyl ether (MTBE), 25° C.",< 2 mg/mL
same,Solubility,"[2]; organic solvent or mixture, Methyl t-butyl ether (MTBE), 50° C.",< 10 mg/mL
same,Solubility,"[2]; organic solvent or mixture, Tetrahydrofuran (THF), 25° C.",> 100 mg/mL
same,Solubility,"[2]; organic solvent or mixture, Tetrahydrofuran (THF), 50° C.",167 to 250 mg/mL
same,Solubility,"[2]; Water, 25° C.",20 to 25 mg/mL
same,Solubility,"[2]; Water, 50° C.",25 to 27 mg/mL
CCOC(=O)C(C)NP(=O)(COCCn1cnc2c(OC)nc(N)nc21)OCc1ccccc1.CCOC(=O)C(C)NP(=O)(COCCn1cnc2c(OC)nc(N)nc21)OCc1ccccc1.O=C(O)C=CC(=O)O (mixture of isomers) [Compound I Hemifumarate Pattern 1],Solubility 0.5 hrs,[3]; [6],>2 mg/mL
same,Solubility 2 hrs,[3]; [6],>2 mg/mL
same,pH at 2 hrs,[3]; [6],(5.30)
same,Solubility 0.5 hrs,[3]; Water,>2 mg/mL
same,Solubility 2 hrs,[3]; Water,>2 mg/mL
same,pH at 2 hrs,[3]; Water,(3.38)
same,Solubility 0.5 hrs,[3]; pH 3.0 100 mM citrate buffer,>2 mg/mL
same,Solubility 2 hrs,[3]; pH 3.0 100 mM citrate buffer,>2 mg/mL
same,pH at 2 hrs,[3]; pH 3.0 100 mM citrate buffer,(3.07)
same,Solubility 0.5 hrs,[3]; pH 4.5 50 mM acetate buffer,>2 mg/mL
same,Solubility 2 hrs,[3]; pH 4.5 50 mM acetate buffer,>2 mg/mL
same,pH at 2 hrs,[3]; pH 4.5 50 mM acetate buffer,(4.45)
same,Solubility 0.5 hrs,[3]; pH 6.8 50 mM phosphate buffer,>2 mg/mL
same,Solubility 2 hrs,[3]; pH 6.8 50 mM phosphate buffer,>2 mg/mL
same,pH at 2 hrs,[3]; pH 6.8 50 mM phosphate buffer,(6.68)
same,D. (%) Cycle 1 (Desorption),"[1]; 0% RH, 25° C.",0.13%
same,D. (%) Cycle 2 (Desorption),"[1]; 0% RH, 25° C.",0.00%
same,S. (%) Cycle 1 (Sorption),"[1]; 0% RH, 25° C.",0.13%
same,S. (%) Cycle 2 (Sorption),"[1]; 0% RH, 25° C.",0.00%
same,D. (%) Cycle 1 (Desorption),"[1]; 10% RH, 25° C.",0.36%
same,D. (%) Cycle 2 (Desorption),"[1]; 10% RH, 25° C.",0.23%
same,S. (%) Cycle 1 (Sorption),"[1]; 10% RH, 25° C.",0.34%
same,S. (%) Cycle 2 (Sorption),"[1]; 10% RH, 25° C.",0.20%
same,D. (%) Cycle 1 (Desorption),"[1]; 20% RH, 25° C.",0.56%
same,D. (%) Cycle 2 (Desorption),"[1]; 20% RH, 25° C.",0.44%
same,S. (%) Cycle 1 (Sorption),"[1]; 20% RH, 25° C.",0.53%
same,S. (%) Cycle 2 (Sorption),"[1]; 20% RH, 25° C.",0.40%
same,D. (%) Cycle 1 (Desorption),"[1]; 30% RH, 25° C.",0.79%
same,D. (%) Cycle 2 (Desorption),"[1]; 30% RH, 25° C.",0.68%
same,S. (%) Cycle 1 (Sorption),"[1]; 30% RH, 25° C.",0.73%
same,S. (%) Cycle 2 (Sorption),"[1]; 30% RH, 25° C.",0.61%
same,D. (%) Cycle 1 (Desorption),"[1]; 40% RH, 25° C.",1.04%
same,D. (%) Cycle 2 (Desorption),"[1]; 40% RH, 25° C.",0.94%
same,S. (%) Cycle 1 (Sorption),"[1]; 40% RH, 25° C.",0.96%
same,S. (%) Cycle 2 (Sorption),"[1]; 40% RH, 25° C.",0.87%
same,D. (%) Cycle 2 (Desorption),"[1]; 50% RH, 25° C.",1.26%
same,S. (%) Cycle 1 (Sorption),"[1]; 50% RH, 25° C.",1.22%
same,D. (%) Cycle 2 (Desorption),"[1]; 60% RH, 25° C.",1.68%
same,S. (%) Cycle 1 (Sorption),"[1]; 60% RH, 25° C.",1.57%
same,D. (%) Cycle 2 (Desorption),"[1]; 70% RH, 25° C.",2.25%
same,S. (%) Cycle 1 (Sorption),"[1]; 70% RH, 25° C.",2.04%
same,D. (%) Cycle 2 (Desorption),"[1]; 80% RH, 25° C.",3.14%
same,S. (%) Cycle 1 (Sorption),"[1]; 80% RH, 25° C.",2.80%
same,D. (%) Cycle 2 (Desorption),"[1]; 90% RH, 25° C.",4.84%
same,S. (%) Cycle 1 (Sorption),"[1]; 90% RH, 25° C.",4.54%
same,D. (%) Cycle 2 (Desorption),"[1]; 95% RH, 25° C.",6.87%
same,S. (%) Cycle 1 (Sorption),"[1]; 95% RH, 25° C.",6.87%
same,XRPD after DVS test,"[1]; cycle 40-0-95-0-40% RH, 25° C.","No form change,"
same,Water uptake,"[1]; up to 95% RH, DVS 25° C.",~6.9%
same,XRPD,"[4]; 25° C., 84% RH, open container, 2 days",No change
same,HPLC (chemical purity),[4]; [7],97.0%
same,XRPD,[4]; [7],No change
same,HPLC (chemical purity),[4]; [8],90.9%
same,XRPD,[4]; [8],No change
same,Degradation compared,[4]; 40° C./75% RH and 60° C. for one week,tends to degrade more than Compound I monofumarate Pattern 1
same,HPLC (chemical purity),[4]; [9],82.3%
same,XRPD,[4]; [9],No change
same,HPLC (chemical purity),[4]; Initial,97.8%
